Data taken from patent publication US8217035B2, “Pyrimidine derivatives used as PI-3-kinase inhibitors” (Novartis AG, priority 2006, dated 2012).
Read-outs that look alike come from different tables or passages of the source.

How the values were obtained:
PI3 kinase alpha = PI3 kinase alpha (Homo sapiens, UniProt P42336); assay: PI3K ATP depletion assay (Biological Method 1, Assay 3; KinaseGlo luminescence); type: biochemical; settings: ATP depletion assay, read-out: PI3 Kinase Alpha, IC50
How it was run: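 Compound in DMSO was mixed with 10 nM PI3 kinase and 5 μg/mL phosphatidylinositol, and the reaction was started with 2 μM ATP. It ran to about 50% ATP depletion and was stopped with KinaseGlo.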

[1] = tested on: pSer473 Akt in A2780 cells; assay: pSer473 Akt assay to monitor PI3K pathway in A2780 cells (Biological Method 2, MSD); type: cell-based; settings: Homo sapiens, inhibition of Akt phosphorylation
How it was run: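 A2780 ovarian cancer cells in DMEM/10% FBS were treated with compound for 1 h at 37 °C, then lysed. pSer473-Akt and total Akt were measured by MSD electrochemiluminescence immunoassay. The pSer473/total Akt ratio gave % inhibition versus DMSO, from which EC50 was derived.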

[2] = tested on: A2780 ovarian cancer cells; assay: Cellular proliferation in A2780 cells, Cell Titer Glo (Biological Method 4); type: cell-based; settings: Homo sapiens
How it was run: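 Viability after 72 h compound exposure (37 °C, 5% CO2) was read by Cell Titer Glo and an EC50 derived, each condition in duplicate. A2780 ovarian cells had been plated at 1,000 per well in DMEM/10% FBS at least 2 h beforehand.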

[3] = tested on: Akt^Ser473 phosphorylation in A2780 xenograft tumors; assay: In vivo target modulation (PK/PD) in A2780 ovarian cancer xenograft tumors (Biological Method 3); design: species or system nu/nu mice; settings: Mus musculus, A2780 xenograft tumors, read-out: Modulation of Akt^Ser473 phosphorylation (percentage inhibition compared to vehicle)
Text: A2780 ovarian cancer cells obtained from George Coukos (Fox Chase Cancer Center, University of Pennsylvania, Philadelphia, Pa.) were maintained in DMEM (Invitrogen, Inc.) supplemented with 10% heat-inactivated fetal bovine serum with 1% glutamine. Cells were propagated as recommended by the Dr. Coukos and colleagues. Female nu/nu mice (8-12 weeks old, 20-25 g, Charles River) were used for all in vivo pharmacology studies. The mice were housed and maintained in accordance with state and federal guidelines for the humane treatment and care of laboratory animals and received food and water ad libitum. Cancer cells were harvested from mid-log phase cultures using trypsin-EDTA (Invitrogen, Inc.). Five million cells were subcutaneously injected into the right flank of each mouse. Compound treatment was initiated when tumor size reached to 300-400 mm^3 for PK/PD studies and 200-300 mm^3 for efficacy studies. All compound treatment was administrated orally. Tumor volumes were determined by using StudyDirector software.
For PK/PD dose-dependent studies, tumor-bearing mice were given a single oral dose of compound at different concentrations (10, 30, 60 and 100 mg/kg or vehicle) and tumors were resected at 10 hr or 24 hr after dosing. Blood samples were taken by cardiac puncture using a syringe primed with heparin sulfate. Resected tumors were snap frozen on dry ice and pulverized using a liquid nitrogen-cooled cryomortar and pestle, and lysed in cold cell extraction buffer (Biosource) containing protease inhibitor tablet (Complete; EDTA-free, Amersham). Supernatants were taken after centrifugation of tumor lysates at 300×g for 10 min at 4° C. and the protein concentration in each supernatant was determined by BCA (BioRad). An equal amount of protein from each tumor lysate was loaded onto 10% Tris-glycine gels (Invitrogen), for sodiumdoceylsulfate-polyacrylamide gel electrophoresis (SDS-PAGE) after which proteins were transferred from the gel onto PVDF membrane. Membranes were probed with antibodies that recognize phosphoAkt^Ser473 or phosphoAkt^Thr308 (Cell Signaling) followed by secondary goat anti-rabbit IgG conjugated to HRP(Amersham). Positive bands were visualized by enhanced chemiluminescence with X-ray film. Similar procedures were used to determine total AKT in the same tumor lysates to serve as normalization for total protein in each determination. The density of the positive band on the X-ray film was scanned and the target modulation for each compound was expressed as percentage inhibition by each compound compared to vehicle treatment.
For efficacy studies, A2780 cancer cells (5×10^6 in 100 μl of DMEM culture medium) were injected subcutaneously into the right flank of each nu/nu mouse. […] Tumor growth and animal body weight was measured twice weekly with daily clinical observation to monitor potential toxicities related to the treatment. […] Activation of the PI3K signaling pathway results in the phosphorylation of the downstream signaling molecule Akt at Ser^473 and/or Thr^308. Compound modulation of Akt^Ser473 phosphorylation was examined in A2780 xenograft tumors at time points ranging from 30 min to 36 hr after a single compound dose at 60 or 100 mg/kg.

[4] = ovarian cancer cell line A2780, Biological Method 4

Chain of PI3 kinase alpha (P42336 whole entry): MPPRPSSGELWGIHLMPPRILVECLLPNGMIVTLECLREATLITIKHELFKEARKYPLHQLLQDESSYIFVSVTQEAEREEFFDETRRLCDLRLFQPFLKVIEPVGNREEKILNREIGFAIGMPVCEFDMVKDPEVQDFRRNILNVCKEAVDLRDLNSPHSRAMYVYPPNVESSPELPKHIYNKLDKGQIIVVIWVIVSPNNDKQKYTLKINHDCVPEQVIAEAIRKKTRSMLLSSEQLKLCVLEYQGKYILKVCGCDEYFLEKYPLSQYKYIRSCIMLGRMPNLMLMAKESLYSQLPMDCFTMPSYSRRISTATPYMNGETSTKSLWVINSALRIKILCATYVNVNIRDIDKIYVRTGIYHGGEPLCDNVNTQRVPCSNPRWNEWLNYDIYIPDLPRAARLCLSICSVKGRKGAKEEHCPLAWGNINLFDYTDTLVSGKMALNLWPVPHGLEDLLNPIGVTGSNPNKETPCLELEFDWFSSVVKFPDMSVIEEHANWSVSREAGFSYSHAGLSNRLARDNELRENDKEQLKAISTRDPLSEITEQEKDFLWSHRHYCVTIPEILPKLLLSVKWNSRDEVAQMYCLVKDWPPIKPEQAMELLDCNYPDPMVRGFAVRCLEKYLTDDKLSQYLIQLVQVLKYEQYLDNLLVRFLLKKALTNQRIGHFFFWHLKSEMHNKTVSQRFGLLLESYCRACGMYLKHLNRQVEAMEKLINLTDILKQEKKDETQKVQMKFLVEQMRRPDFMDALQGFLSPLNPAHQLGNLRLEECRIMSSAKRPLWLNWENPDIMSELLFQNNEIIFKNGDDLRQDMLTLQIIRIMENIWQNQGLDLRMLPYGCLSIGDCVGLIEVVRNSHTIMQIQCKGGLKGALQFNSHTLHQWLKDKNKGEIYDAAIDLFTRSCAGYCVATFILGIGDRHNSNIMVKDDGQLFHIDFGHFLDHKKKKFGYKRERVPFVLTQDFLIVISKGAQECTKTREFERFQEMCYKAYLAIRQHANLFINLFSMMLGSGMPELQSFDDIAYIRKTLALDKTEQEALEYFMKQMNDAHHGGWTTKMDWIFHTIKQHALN
Chain of PI3 kinase alpha (P27986 whole entry partner): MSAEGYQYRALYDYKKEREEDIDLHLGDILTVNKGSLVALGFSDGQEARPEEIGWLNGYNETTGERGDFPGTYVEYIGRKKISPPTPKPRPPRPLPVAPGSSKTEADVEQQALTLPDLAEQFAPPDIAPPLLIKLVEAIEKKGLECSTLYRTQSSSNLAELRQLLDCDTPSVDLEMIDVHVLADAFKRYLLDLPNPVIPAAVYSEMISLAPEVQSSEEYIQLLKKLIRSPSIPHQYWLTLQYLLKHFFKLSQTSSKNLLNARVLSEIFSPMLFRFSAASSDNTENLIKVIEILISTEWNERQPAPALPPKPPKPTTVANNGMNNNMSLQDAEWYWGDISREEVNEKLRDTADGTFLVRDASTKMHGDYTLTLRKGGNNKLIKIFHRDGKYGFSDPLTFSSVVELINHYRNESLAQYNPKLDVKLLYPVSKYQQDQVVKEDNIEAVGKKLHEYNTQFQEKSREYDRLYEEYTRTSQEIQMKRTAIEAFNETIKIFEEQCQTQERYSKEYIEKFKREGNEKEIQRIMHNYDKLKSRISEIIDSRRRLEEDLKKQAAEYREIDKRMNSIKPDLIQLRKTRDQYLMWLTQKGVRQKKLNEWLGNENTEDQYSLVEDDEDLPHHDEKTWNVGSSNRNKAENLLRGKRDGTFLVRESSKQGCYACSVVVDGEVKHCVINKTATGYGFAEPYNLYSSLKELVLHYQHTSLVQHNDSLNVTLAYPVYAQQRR

Structure (SMILES) | IC50 (PI3 kinase alpha) [nM] | EC50 ([1]; A2780 cells) [nM] | EC50 ([2]; ovarian cancer cell line A2780) [nM] | IC50 (PI3 kinase alpha; Biological Method 1) [nM] | EC50 ([1]; A2780, Biological Method 2) [nM] | EC50 [2, 4] [nM] | further results
Nc1ncc(-c2cc(OC3CCOCC3)nc(N3CCOCC3)n2)c(C(F)(F)F)n1 [Compound 66] | < 1000 | < 1000 | < 10000 | – | – | – | inhibition at 60 mg/kg ([3]; 60 mg/kg single oral dose, 10 hr): < 50%
Nc1ccc(-c2cc(Nc3cnc4ccccc4c3)nc(N3CCOCC3)n2)cn1 [Compound 183] | – | < 1000 | < 1000 | – | – | – | inhibition at 100 mg/kg ([3]; 100 mg/kg single oral dose, 8 hr): 50 to 75%
Nc1ccc(-c2cc(Nc3ccncc3)nc(N3CCOCC3)n2)cn1 [Compound 184] | < 1000 | < 1000 | < 1000 | – | – | – | –
Cc1nc(N)ncc1-c1nc(N2CCOCC2)nc(Nc2cnc3ccccc3c2)c1C [Compound 185] | < 1000 | < 1000 | < 1000 | – | – | – | –
Nc1ncc(-c2cc(O[C@H]3CCCN(C(=O)OC4CCCC4)C3)nc(N3CCOCC3)n2)c(N)n1 [Compound 186] | < 1000 | < 1000 | < 10000 | – | – | – | –
Nc1ccc(-c2cc(Nc3ccccc3S(N)(=O)=O)nc(N3CCOCC3)n2)cn1 [Compound 187] | < 1000 | < 1000 | < 10000 | – | – | – | –
CC(C)N1CC[C@H](Oc2ccc(Nc3cc(-c4cnc(N)cc4C(F)(F)F)nc(N4CCOCC4)n3)cn2)C1 [Compound 188] | < 1000 | < 1000 | < 10000 | – | – | – | –
Nc1ncc(-c2cc(NC(=O)c3cccnc3)nc(N3CCOCC3)n2)cn1 [Compound 189] | < 1000 | < 1000 | < 10000 | – | – | – | –
Nc1ccc(-c2cc(Nc3ccc(S(N)(=O)=O)cc3)nc(N3CCOCC3)n2)cn1 [Compound 190] | < 1000 | < 1000 | < 10000 | – | – | – | –
N#Cc1cnccc1Nc1cc(-c2ccc(N)nc2)nc(N2CCOCC2)n1 [Compound 191] | < 1000 | < 1000 | < 10000 | – | – | – | –
Cc1c(-c2ccc(Nc3ncc(-c4ccccc4)s3)nc2)nc(N2CCOCC2)nc1-c1cnc(N)nc1 [Compound 194] | < 1000 | < 1000 | < 10000 | – | – | – | –
Nc1ccc(-c2cc(Nc3cnc4ccccc4c3)nc(N3CCOCC3)n2)c(Cl)n1 [Compound 195] | < 1000 | < 1000 | < 1000 | – | – | – | –
Nc1ccc(-c2cc(Nc3ccncc3F)nc(N3CCOCC3)n2)cn1 [Compound 196] | < 1000 | < 1000 | < 1000 | – | – | – | –
NC(=O)c1ccc(Nc2cc(-c3ccc(N)nc3)nc(N3CCOCC3)n2)cc1 [Compound 197] | < 1000 | < 1000 | < 10000 | – | – | – | –
COc1ccc(Nc2cc(-c3cnc(N)cc3C(F)(F)F)nc(N3CCOCC3)n2)cn1 [Compound 199] | – | – | – | < 1000 | < 1000 | < 10000 | –
COc1cc(N)ncc1-c1cc(Nc2cnc3ccccc3c2)nc(N2CCOCC2)n1 [Compound 200] | – | – | – | < 1000 | < 1000 | < 1000 | –

Structure (SMILES) | IC50 (PI3 kinase alpha) [nM] | EC50 ([1]; A2780 cells) [nM] | EC50 ([2]; ovarian cancer cell line A2780) [nM] | IC50 (PI3 kinase alpha; Biological Method 1) [nM] | EC50 ([1]; A2780, Biological Method 2) [nM] | EC50 [2, 4] [nM] | further results
Cc1cc(N)ncc1-c1cc(Nc2cnc3ccccc3c2)nc(N2CCOCC2)n1 [Compound 201] | – | – | – | < 1000 | < 1000 | < 1000 | –
Nc1ncc(-c2cc(Nc3cnc4ccccc4c3)nc(N3CCOCC3)n2)cc1F [Compound 202] | – | – | – | < 1000 | < 1000 | < 1000 | –
CC(C)Oc1ncccc1Nc1cc(-c2cnc(N)cc2C(F)(F)F)nc(N2CCOCC2)n1 [Compound 204] | – | – | – | < 1000 | < 1000 | < 25000 | –
CC(=O)Nc1cc(-c2cnc(N)nc2)nc(N2CCOCC2)n1 [Compound 205] | – | – | – | < 1000 | < 1000 | < 10000 | –
COc1ccc2ncc(Nc3cc(-c4cnc(N)nc4)nc(N4CCOCC4)n3)cc2c1 [Compound 206] | – | – | – | < 1000 | < 1000 | < 1000 | –
Nc1cc(C(F)(F)F)c(-c2cc(Nc3cccc(S(=O)(=O)N4CCCCC4)c3)nc(N3CCOCC3)n2)cn1 [Compound 207] | – | – | – | < 1000 | < 10000 | < 1000 | –
CS(=O)(=O)c1ccc(Nc2cc(-c3cnc(N)[nH]c3=O)nc(N3CCOCC3)n2)cn1 [Compound 208] | – | – | – | < 1000 | < 10000 | < 25000 | –
N#Cc1cc(-c2cnc(N)cc2C(F)(F)F)nc(N2CCOCC2)n1 [Compound 209] | – | – | – | < 1000 | < 10000 | < 10000 | –
Nc1cc(C(F)(F)F)c(-c2cc(N3CCOc4ccccc43)nc(N3CCOCC3)n2)cn1 [Compound 210] | – | – | – | < 1000 | < 10000 | < 10000 | –
COc1ccc2ncc(Nc3cc(-c4ccc(N)nc4)nc(N4CCOCC4)n3)cc2c1 [Compound 211] | – | – | – | < 1000 | < 10000 | < 1000 | –
Cc1c(Nc2ccc(OC(CO)CO)nc2)nc(N2CCOCC2)nc1-c1cnc(N)nc1 [Compound 212] | – | – | – | < 1000 | < 10000 | < 25000 | –
CCc1c(Nc2cnc3ccccc3c2)nc(N2CCOCC2)nc1-c1ccc(N)nc1 [Compound 213] | – | – | – | < 1000 | < 10000 | < 1000 | –
CS(=O)(=O)c1ccc(Nc2cc(-c3cnc(N)nc3N)nc(N3CCOCC3)n2)cn1 [Compound 214] | – | – | – | < 1000 | < 10000 | < 25000 | –
Cc1c(-c2cnc(N)nc2)nc(N2CCOCC2)nc1-c1ccnc(Nc2ncc(-c3ccccc3)s2)c1 [Compound 215] | – | – | – | < 1000 | < 10000 | < 10000 | –
CC(C)N1CCC(Oc2ccc(Nc3cc(-c4cnc(N)cc4C(F)(F)F)nc(N4CCOCC4)n3)cc2)CC1 [Compound 552] | < 1000 | – | < 10000 | – | – | – | EC50 ([1]; A2780): < 1000 nM
COc1cc(Nc2cc(-c3cnc(N)cc3C(F)(F)F)nc(N3CCOCC3)n2)ccc1OC1CCN(C(C)C)CC1 [Compound 553] | < 1000 | – | < 1000 | – | – | – | EC50 ([1]; A2780): < 1000 nM
